Test results from PMC6440464 (PeerJ, 2019).
Like-named read-outs stand apart in the source and are kept apart here.

Experiment: Pharmacokinetics study after separate oral administration in rats (HPLC-MS of plasma)
Type: in vivo, Sprague-Dawley rats
Details: male, Sprague-Dawley, rat, plasma, 50 mg/kg; for Tmax / AUC(0-t) / CL/F / Cmax / MRT last / half-life: po, rat plasma; for Tmax: read-out: Tmax (converted); for CL/F: read-out: CLz/F; for Cmax: read-out: Cmax; for half-life: read-out: t1/2z
Experimental: A total of 15 SPF Sprague-Dawley rats (SD, male, 190–210 g) were provided by Sino-British Sippr/BK Lab Animal Company Ltd. (Shanghai, China). The rats were kept in standard conditions (22–26 °C; 40–60% relative humidity; 12 h light/dark cycle). Throughout the rearing period, the animals had access to food and water ad libitum. Animal experiments were conducted in accordance with the standard ethical guidelines of the Laboratory Animal Management Committee of Jiangsu Province (SYXK (SU) 2016-0011).
Following 1 week of adaptation, the rats were fasted for about 12 h before dosing, with free access to water. […] After administration of the first dose, blood samples were taken from the retro-orbital vein at 0, 5, 15, 30, 60, 90, 120, 180, 240, 360, 480, and 1,440 min and collected in heparinized tubes. The samples were centrifuged at 3,500 rpm for 10 min at 4 °C and the plasma was stored at −80 °C until analysis.
An Agilent 1,200 series HPLC system (Agilent Technologies, Waldbronn, Germany) equipped with a quaternary pump on-line degasser, auto-sampler and column oven, and an SL G1946D quadruple mass spectrometer (Agilent Technologies, Santa Clara, CA, USA) equipped with an electrospray ionization (ESI) source, were used for separation and detection. Data were acquired and analyzed using Agilent ChemStation Software Version A.01.00 (Agilent Technologies, Santa Clara, CA, USA).
The separation was carried out with an Amethyst C18-H column (150 × 4.6 mm, 5 μm, Sepax Technologies, Newark, DE, USA) with a guard column SB-C18 (10 × 4.6 mm, 5 μm, Phenomenex Technologies, Torrance, USA) at a constant temperature of 25 °C.
The mass spectra were acquired using ESI interfaced to a single quadrupole mass spectrometer. The ionization conditions were as follows: drying gas (N2) flow rate of 11 L/min, drying gas temperature of 350 °C, nebulizing gas (N2) pressure of 35 psi, capillary voltage of 3,500 V, quad temperature of 100 °C, and fragment voltage of 110 V. A series of m/z were monitored using a timed program according to the retention times and characteristic ions for the corresponding HPLC-MS peak obtained by scanning from m/z 100–1,000 in the standard sample.
Briefly, an aliquot of plasma sample (100 μL) was spiked with 5% formic acid (10 μL) in centrifuge tube. Subsequently, hydrochloric acid (2 mol/L, 10 μL) and IS solution (960.00 ng/mL, 20 μL) were added. Then ethyl acetate/n-butyl alcohol (1:1 v/v; 1,000 μL) was used to extract the components. The samples were then homogenized by vortex mixing and centrifuged for 10 min at 14,000 rpm. After centrifugation, 800 μL of supernatant was transferred to another centrifuge tube and the sample was evaporated to dryness. The residues were dissolved in 100 μL of methanol and centrifuged for 10 min at 12,000 rpm. 50 μL of the supernatant was transferred to the vial and an aliquot of 5 μL was injected into the HPLC-MS system for analysis.
DAS 2.0 (Chinese Pharmacological Association, Shanghai, China) was used to calculate the pharmacokinetic parameters using the non-compartment model, including the area under curve (AUC), mean residence time (MRT), half-life ( t1/2z), clearance rate (CL), maximum plasma concentration (Cmax), and time (Tmax). All results are expressed as mean ± standard deviation (SD). One way analysis of variance followed by […] was used for comparison of different groups using Graph pad prism 5 software. A p-value of <0.05 was considered statistically significant.

[1] = IQ group (oral IQ 50 mg/kg), labelled substance = analyte, mean of 5 rats
[2] = IQ group: oral IQ 50 mg/kg, mean ± SD, n = 5
[3] = QG group (oral QG 50 mg/kg), labelled substance = analyte, mean of 5 rats
[4] = QG group: oral QG 50 mg/kg, mean ± SD, n = 5
[5] = Qr group (oral Qr 50 mg/kg), labelled substance = analyte, mean of 5 rats
[6] = Qr group: oral Qr 50 mg/kg, mean ± SD, n = 5

Q: Which results are given for `O=c1c(O)c(-c2ccc(O)c(O)c2)oc2cc(O)cc(O)c12` [Qr, Quercetin]?
A: concentration at 5 min (oral, QG group (oral QG 50 mg/kg), 5 min, individual rats NO. 1-5, read-out: Plasma concentrations): 0 ng/mL; concentration at 15 min (oral, QG group (oral QG 50 mg/kg), 15 min, individual rats NO. 1-5, read-out: Plasma concentrations): 0 ng/mL; concentration at 30 min (oral, QG group (oral QG 50 mg/kg), 30 min, individual rats NO. 1-5, read-out: Plasma concentrations): 0 ng/mL; concentration at 240 min (oral, Qr group (oral Qr 50 mg/kg), 240 min, individual rats NO. 1-5, read-out: Plasma concentrations): 2590 ng/mL; Tmax (IQ group (oral IQ 50 mg/kg), labelled substance = analyte, individual rats No1-No5): 0.5 h; AUC(0-t) (IQ group (oral IQ 50 mg/kg), labelled substance = analyte, mean of 5 rats, read-out: AUC(0-t) (converted)): 36900 ng·h/mL; CL/F [1]: 24 mL/min/kg; Cmax [1]: 6600 ng/mL; MRT last (IQ group (oral IQ 50 mg/kg), labelled substance = analyte, mean of 5 rats, read-out: MRT(0-t) (converted)): 7.04 h; Tmax [1]: 0.7 h; half-life [1]: 6.31 h; AUC(0-t) (IQ group: oral IQ 50 mg/kg, mean ± SD, n = 5, read-out: AUC0−t (converted)): 36900 ng·h/mL; Cmax [2]: 6600 ± 2670 ng/mL; MRT last (IQ group: oral IQ 50 mg/kg, mean ± SD, n = 5, read-out: MRT0−t (converted)): 7.04 h; Tmax [2]: 0.7 h; half-life [2]: 6.31 ± 5.65 h; Tmax (QG group (oral QG 50 mg/kg), labelled substance = analyte, individual rats No1-No5): 4 h; AUC(0-t) (QG group (oral QG 50 mg/kg), labelled substance = analyte, mean of 5 rats, read-out: AUC(0-t) (converted)): 58400 ng·h/mL; CL/F [3]: 14 mL/min/kg; Cmax [3]: 5170 ng/mL; Tmax [3]: 6 h; half-life [3]: 6.09 h; AUC(0-t) (QG group: oral QG 50 mg/kg, mean ± SD, n = 5, read-out: AUC0−t (converted)): 58400 ng·h/mL; Cmax [4]: 5170 ± 1850 ng/mL; Tmax [4]: 6 h; half-life [4]: 6.09 ± 2.53 h; MRT last (Qr group (oral Qr 50 mg/kg), labelled substance = analyte, individual rats No1-No5, read-out: MRT(0-t) (converted)): 6.33 h; half-life (Qr group (oral Qr 50 mg/kg), labelled substance = analyte, individual rats No1-No5): 7.67 h; AUC(0-t) (Qr group (oral Qr 50 mg/kg), labelled substance = analyte, mean of 5 rats, read-out: AUC(0-t) (converted)): 43200 ng·h/mL; CL/F [5]: 20 mL/min/kg; Cmax [5]: 7470 ng/mL; Tmax [5]: 0.9 h; half-life [5]: 7.29 h; AUC(0-t) (Qr group: oral Qr 50 mg/kg, mean ± SD, n = 5, read-out: AUC0−t (converted)): 43200 ng·h/mL; Cmax [6]: 7470 ± 2630 ng/mL; Tmax [6]: 0.9 h; half-life [6]: 7.29 ± 0.905 h
